Our source for the IC50 and EC50 values is US10669272B2, “Substituted naphthyridinone compounds useful as T cell activators” (BRISTOL-MYERS SQUIBB COMPANY, priority 2018, dated 2020).

The IC50 is the concentration that inhibits the measured activity by half. Usually EC50 stands for the concentration giving half of the maximal effect.

Read-outs that look alike come from different tables or passages of the source.

For experiment [1], the target named is T1, human DGKζ (Homo sapiens, UniProt Q13574).
T1 construct: TVMV protease cleavage site (C); Hexa-His (C); made in house; host or cells: Sf9 insect cells (baculovirus, Bac-to-Bac)
T1 sequence (Q13574 with tags, fused parts or gaps isoform Q13574-4): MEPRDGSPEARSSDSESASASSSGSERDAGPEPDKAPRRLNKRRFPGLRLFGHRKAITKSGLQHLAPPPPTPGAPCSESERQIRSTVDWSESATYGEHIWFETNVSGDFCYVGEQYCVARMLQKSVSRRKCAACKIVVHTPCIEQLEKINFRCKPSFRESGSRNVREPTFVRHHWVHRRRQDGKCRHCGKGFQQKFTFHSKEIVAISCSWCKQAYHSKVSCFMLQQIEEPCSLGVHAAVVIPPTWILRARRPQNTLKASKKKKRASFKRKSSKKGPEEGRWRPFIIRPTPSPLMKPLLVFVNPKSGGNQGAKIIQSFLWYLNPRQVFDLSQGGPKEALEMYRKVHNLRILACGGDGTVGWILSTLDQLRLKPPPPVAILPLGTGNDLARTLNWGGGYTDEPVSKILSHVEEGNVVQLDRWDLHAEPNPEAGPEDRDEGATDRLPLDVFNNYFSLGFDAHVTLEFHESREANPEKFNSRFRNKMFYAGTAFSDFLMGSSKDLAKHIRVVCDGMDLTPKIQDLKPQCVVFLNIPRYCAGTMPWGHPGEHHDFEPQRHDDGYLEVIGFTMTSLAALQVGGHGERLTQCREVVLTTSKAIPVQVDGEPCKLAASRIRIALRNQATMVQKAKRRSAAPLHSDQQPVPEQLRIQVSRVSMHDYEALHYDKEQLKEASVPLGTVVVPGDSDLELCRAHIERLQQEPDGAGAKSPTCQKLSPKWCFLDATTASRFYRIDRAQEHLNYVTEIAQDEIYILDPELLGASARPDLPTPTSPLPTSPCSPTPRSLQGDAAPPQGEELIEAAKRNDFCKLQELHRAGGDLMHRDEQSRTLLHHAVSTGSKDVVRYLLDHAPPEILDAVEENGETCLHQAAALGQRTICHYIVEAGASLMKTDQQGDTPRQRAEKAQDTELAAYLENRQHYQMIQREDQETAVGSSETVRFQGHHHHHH
As to the kind of experiment: DGKζ LIPGLO assay (extruded liposome substrate), in vitro DGK inhibition. It counts as biochemical. Conditions: liposome (LIPGLO) assay; read-out: DGKz LIPGLO IC50.

Experiment [2] deals with Human venous whole blood. The experiment in a line: Human whole blood IFN-γ assay.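 Also: blood from healthy donors exposed to compound for 1 h before stimulation with anti-CD3 and anti-CD28 at 1 µg/mL each, IFN-γ quantified in supernatant by AlphaLISA.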 It counts as cell-based. Particulars: human whole blood, normalized to 3 μM reference compound with anti-CD3 plus anti-CD28 as 100% activation, read-out: INFg Whole Blood Normalized Agonist EC50.
Procedure: Human Whole Blood IFN-γ Assay
Human venous whole blood (22.5 μL per well), obtained from healthy donors, was pre-treated with compounds for one hour at 37° C. in a humidified 95% air/5% CO2 incubator. The blood was stimulated with 2.5 μL anti-human CD3 and anti-CD28 mAb at a final concentration of 1 μg/mL each for 24 hours at 37° C. IFN-γ in the supernatants was measured using AlphLISA kit (Cat # AL217).
In experiment [3] the target is T2, human DGKα (Homo sapiens, UniProt P23743).
T2 construct: TVMV protease cleavage site (C); Hexa-His (C); made in house; host or cells: Sf9 insect cells (baculovirus, Bac-to-Bac)
T2 sequence (P23743 with tags, fused parts or gaps): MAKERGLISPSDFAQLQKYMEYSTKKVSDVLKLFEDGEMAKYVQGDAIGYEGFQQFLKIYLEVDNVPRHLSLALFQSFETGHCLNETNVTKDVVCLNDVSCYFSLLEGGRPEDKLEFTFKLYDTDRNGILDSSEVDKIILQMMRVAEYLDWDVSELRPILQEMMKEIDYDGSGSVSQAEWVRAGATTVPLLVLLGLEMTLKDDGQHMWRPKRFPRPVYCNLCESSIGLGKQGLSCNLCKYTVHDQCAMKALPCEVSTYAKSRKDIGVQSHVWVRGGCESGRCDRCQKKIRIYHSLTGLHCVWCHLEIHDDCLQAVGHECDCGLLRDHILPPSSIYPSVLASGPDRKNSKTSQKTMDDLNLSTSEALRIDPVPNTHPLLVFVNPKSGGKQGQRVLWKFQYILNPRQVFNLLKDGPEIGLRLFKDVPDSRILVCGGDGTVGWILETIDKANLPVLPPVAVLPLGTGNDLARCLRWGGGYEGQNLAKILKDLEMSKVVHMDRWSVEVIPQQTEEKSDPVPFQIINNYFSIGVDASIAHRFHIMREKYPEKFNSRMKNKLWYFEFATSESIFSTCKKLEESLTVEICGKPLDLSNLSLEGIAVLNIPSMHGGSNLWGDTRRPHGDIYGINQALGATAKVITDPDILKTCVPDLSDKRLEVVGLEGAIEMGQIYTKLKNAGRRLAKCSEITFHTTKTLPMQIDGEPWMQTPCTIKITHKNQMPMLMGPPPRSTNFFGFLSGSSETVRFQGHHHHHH
The experiment in a line: DGKα LIPGLO assay (extruded liposome substrate), in vitro DGK inhibition. It counts as biochemical. Conditions: liposome (LIPGLO) assay; read-out: DGKa LIPGLO IC50.

In the case of `CC[C@@H]1CN(c2cc(=O)n(C)c3ccc(C#N)nc23)[C@@H](C)CN1Cc1ccc(OC(F)(F)F)c(F)c1` [Example 1332], the IC50 in experiment [1] was 610 nM; in experiment [3] it was 530 nM. Also, the EC50 in experiment [2] (Homo sapiens, 24 h) was found to be 4400 nM.

Consider `C[C@@H]1CN(c2cc(=O)[nH]c3ccc(C#N)nc23)[C@@H](C)CN1C(c1ccc(F)cc1)c1ccc(C#N)cc1` (stereo partly drawn) [Example 1336, 8-((2S,5R)-4-((4-cyanophenyl)(4-fluorophenyl)methyl)-2,5-dimethylpiperazin-1-yl)-6-oxo-5,6-dihydro-1,5-naphthyridine-2-carbonitrile], for which the IC50 in experiment [1] was 14000 nM; in experiment [3], 1800 nM. Moreover, the EC50 in experiment [2] (Homo sapiens, 24 h) amounted to 11000 nM.

For the compound `CC[C@@H]1CN(c2cc(=O)n(C)c3ccc(C#N)nc23)[C@@H](C)CN1C(C)c1ccc(OC(F)F)cc1` (stereo partly drawn) [Example 1343], the IC50 in experiment [1] stood at 16 nM; in experiment [3], 4.4 nM. In addition, in experiment [2] (Homo sapiens, 24 h), the EC50 stood at 51 nM.

As for `CC[C@@H]1CN(c2cc(=O)n(C)c3ccc(C#N)nc23)[C@@H](C)CN1C(C)c1ccc(OC(F)F)cc1` (stereo partly drawn) [Example 1344], the values for the IC50 in experiment [1] and in experiment [3] were 16 nM and 4.4 nM, respectively. In experiment [2], the EC50 came to 51 nM.

With `CC[C@@H]1CN(c2cc(=O)n(C)c3ccc(C#N)nc23)[C@@H](CC)CN1Cc1cc(F)c(F)c(F)c1` [Example 1354], the IC50 in experiment [1] stood at 840 nM; in experiment [3] it was 1600 nM. In addition, the EC50 in experiment [2] (Homo sapiens, 24 h) was 1200 nM.

Take `CC[C@@H]1CN(c2cc(=O)n(C)c3ccc(C#N)nc23)[C@@H](CC)CN1Cc1ccc(OC(F)(F)F)cc1` [Example 1363]: the IC50 in experiment [1] worked out at 550 nM; in experiment [3], 45 nM. In experiment [2] (Homo sapiens, 24 h), the EC50 came to 430 nM.

Take `CC[C@@H]1CN(c2cc(=O)n(C)c3ccc(C#N)nc23)[C@@H](CC)CN1Cc1ccc(OC(F)(F)F)cc1F` [Example 1370]: the IC50 in experiment [1] came out at 140 nM; in experiment [3] it was 23 nM. In experiment [2] (Homo sapiens, 24 h), the EC50 turned out to be 240 nM.

With `CC[C@H]1CN(C(C)c2cc(F)cc(OC(F)(F)F)c2)[C@H](C)CN1c1cc(=O)n(C)c2ccc(C#N)nc12` (stereo partly drawn) [Example 1384], the IC50 is 260 nM in experiment [1] and 9400 nM in experiment [3]. Also, in experiment [2] (Homo sapiens, 24 h), the EC50 amounted to 8000 nM.

For `CC[C@H]1CN(C(C)c2cc(F)cc(OC(F)(F)F)c2)[C@H](C)CN1c1cc(=O)n(C)c2ccc(C#N)nc12` (stereo partly drawn) [Example 1385], the IC50 in experiment [1] worked out at 700 nM; in experiment [3], 5900 nM. The EC50 in experiment [2] stood at 5300 nM.

For the compound `C[C@H]1CN(Cc2ccc3c(c2)OC(F)(F)O3)[C@H](CO)CN1c1cc(=O)n(C)c2ccc(C#N)nc12` [Example 1390], the IC50 in experiment [1] worked out at 15000 nM; in experiment [3], 4000 nM. The EC50 in experiment [2] (Homo sapiens, 24 h) amounted to 14000 nM.

Regarding `COC[C@@H]1CN(c2cc(=O)n(C)c3ccc(C#N)nc23)[C@@H](C)CN1C(c1ccc(F)cc1)c1ccc(C(F)(F)F)cn1` (stereo partly drawn) [Example 1401], the figures for the IC50 in experiment [1] and in experiment [3] were 49 nM and 300 nM, respectively. Also, the EC50 in experiment [2] (Homo sapiens, 24 h) was found to be 470 nM.

With `COC[C@@H]1CN(c2cc(=O)n(C)c3ccc(C#N)nc23)[C@@H](C)CN1C(c1ccc(F)cc1)c1ccc(C(F)(F)F)cn1` (stereo partly drawn) [Example 1402], the results for the IC50 in experiment [1] and in experiment [3] were 100 nM and 300 nM, respectively. Moreover, the EC50 in experiment [2] came out at 260 nM.

With `CCOC[C@@H]1CN(c2cc(=O)n(C)c3ccc(C#N)nc23)[C@@H](C)CN1C(c1ccc(F)cc1)c1ccc(C(F)(F)F)cn1` (stereo partly drawn) [Example 1403], the IC50 is 45 nM in experiment [1] and 1100 nM in experiment [3]. Besides, in experiment [2], the EC50 was 1900 nM.

With `CCOC[C@@H]1CN(c2cc(=O)n(C)c3ccc(C#N)nc23)[C@@H](C)CN1C(c1ccc(F)cc1)c1ccc(C(F)(F)F)cn1` (stereo partly drawn) [Example 1404], the IC50 in experiment [1] worked out at 50 nM; in experiment [3] it was 900 nM. For the same compound, the EC50 in experiment [2] was determined as 900 nM.

In the case of `CC[C@H]1CN(Cc2ccc3c(c2)OC(F)(F)O3)[C@H](COC)CN1c1cc(=O)n(C)c2ccc(C#N)nc12` [Example 1407], the IC50 was determined as 350 nM in experiment [1] and 7100 nM in experiment [3]. Further, the EC50 in experiment [2] (Homo sapiens, 24 h) is 4400 nM.

`C[C@H]1CN(C(c2ccc(F)cc2)c2ccc(F)cc2)[C@H](CNS(C)(=O)=O)CN1c1cc(=O)n(C)c2ccc(C#N)nc12` [Example 1410, N-(((2S,5S)-1-(bis(4-fluorophenyl)methyl)-4-(6-cyano-1-methyl-2-oxo-1,2-dihydro-1,5-naphthyridin-4-yl)-5-methylpiperazin-2-yl)methyl)methanesulfonamide]: the IC50 worked out at 98 nM in experiment [1] and 22000 nM in experiment [3]. For the same compound, the EC50 in experiment [2] (Homo sapiens, 24 h) is 1800 nM.

For the compound `CC(c1ccc(OC(F)(F)F)cc1)N1C[C@H](C)N(c2cc(=O)n(C)c3ccc(C#N)nc23)C[C@H]1CN1CCN(C)CC1` (stereo partly drawn) [Example 1417], the IC50 in experiment [1] stood at 65000 nM; in experiment [3], 26000 nM. Also, the EC50 in experiment [2] (Homo sapiens, 24 h) was 11000 nM.

For `CC(c1ccc(OC(F)(F)F)cc1)N1C[C@H](C)N(c2cc(=O)n(C)c3ccc(C#N)nc23)C[C@H]1CN1CCN(C)CC1` (stereo partly drawn) [Example 1418], the figures for the IC50 in experiment [1] and in experiment [3] were 62000 nM and 67000 nM, respectively. In addition, the EC50 in experiment [2] is 20000 nM.

Take `COC[C@H]1CN(C(c2ccc(F)cc2)c2ccc(F)cc2)[C@H](C)CN1c1cc(=O)n(C)c2ccc(C#N)nc12` [Example 1421, 8-((2R,5R)-4-(bis(4-fluorophenyl)methyl)-2-(methoxymethyl)-5-methylpiperazin-1-yl)-5-methyl-6-oxo-5,6-dihydro-1,5-naphthyridine-2-carbonitrile]: the figures for the IC50 in experiment [1] and in experiment [3] were 470 nM and 2100 nM, respectively. Further, in experiment [2] (Homo sapiens, 24 h), the EC50 stood at 1500 nM.

Consider `C[C@@H]1CN(c2cc(=O)n(C)c3ccc(C#N)nc23)[C@@H](C)CN1Cc1cc(C#N)cs1` [Example 1422, 8-((2S,5R)-4-((4-cyanothiophen-2-yl)methyl)-2,5-dimethylpiperazin-1-yl)-5-methyl-6-oxo-5,6-dihydro-1,5-naphthyridine-2-carbonitrile], for which the IC50 amounted to 4200 nM in experiment [1] and 290 nM in experiment [3]. In experiment [2] (Homo sapiens, 24 h), the EC50 was 6900 nM.

Turning to `C[C@@H]1CN(c2cc(=O)n(C)c3ccc(C#N)nc23)[C@@H](C)CN1Cc1nnnn1C1CC1` [Example 1423], the IC50 was found to be 44000 nM in experiment [1] and 50000 nM in experiment [3]. In addition, the EC50 in experiment [2] (Homo sapiens, 24 h) was 20000 nM.

As to `Cc1cc(CN2C[C@H](C)N(c3cc(=O)n(C)c4ccc(C#N)nc34)C[C@H]2C)no1` [Example 1424], the values for the IC50 in experiment [1] and in experiment [3] were 14000 nM and 3700 nM, respectively. Further, in experiment [2] (Homo sapiens, 24 h), the EC50 came out at 20000 nM.

In the case of `C[C@@H]1CN(c2cc(=O)n(C)c3ccc(C#N)nc23)[C@@H](C)CN1Cc1cc(-c2ccccc2)no1` [Example 1425], the IC50 in experiment [1] is 4900 nM; in experiment [3], 5900 nM. For the same compound, the EC50 in experiment [2] (Homo sapiens, 24 h) was found to be 20000 nM.

Consider `Cc1noc(C)c1CN1C[C@H](C)N(c2cc(=O)n(C)c3ccc(C#N)nc23)C[C@H]1C` [Example 1426], for which the IC50 worked out at 4000 nM in experiment [1] and 33000 nM in experiment [3]. Further, the EC50 in experiment [2] (Homo sapiens, 24 h) is 20000 nM.

Regarding `C[C@@H]1CN(c2cc(=O)n(C)c3ccc(C#N)nc23)[C@@H](C)CN1Cc1cc(-c2ccccc2C#N)no1` [Example 1427], the IC50 was 5200 nM in experiment [1] and 21000 nM in experiment [3]. Moreover, the EC50 in experiment [2] (Homo sapiens, 24 h) was 20000 nM.

In the case of `C[C@@H]1CN(c2cc(=O)n(C)c3ccc(C#N)nc23)[C@@H](C)CN1Cc1cnoc1` [Example 1428], the IC50 came to 53000 nM in experiment [1] and 34000 nM in experiment [3]. For the same compound, the EC50 in experiment [2] (Homo sapiens, 24 h) was determined as 20000 nM.
